Drawing on patent US9056832B2, “Pyridine compounds and the users thereof” (Purdue Pharma L.P., priority 2010, dated 2015), this text covers IC50 for 38 compounds.

human Nav1.7, sequence (Q15858 other isoform, or with tags, fused parts or gaps): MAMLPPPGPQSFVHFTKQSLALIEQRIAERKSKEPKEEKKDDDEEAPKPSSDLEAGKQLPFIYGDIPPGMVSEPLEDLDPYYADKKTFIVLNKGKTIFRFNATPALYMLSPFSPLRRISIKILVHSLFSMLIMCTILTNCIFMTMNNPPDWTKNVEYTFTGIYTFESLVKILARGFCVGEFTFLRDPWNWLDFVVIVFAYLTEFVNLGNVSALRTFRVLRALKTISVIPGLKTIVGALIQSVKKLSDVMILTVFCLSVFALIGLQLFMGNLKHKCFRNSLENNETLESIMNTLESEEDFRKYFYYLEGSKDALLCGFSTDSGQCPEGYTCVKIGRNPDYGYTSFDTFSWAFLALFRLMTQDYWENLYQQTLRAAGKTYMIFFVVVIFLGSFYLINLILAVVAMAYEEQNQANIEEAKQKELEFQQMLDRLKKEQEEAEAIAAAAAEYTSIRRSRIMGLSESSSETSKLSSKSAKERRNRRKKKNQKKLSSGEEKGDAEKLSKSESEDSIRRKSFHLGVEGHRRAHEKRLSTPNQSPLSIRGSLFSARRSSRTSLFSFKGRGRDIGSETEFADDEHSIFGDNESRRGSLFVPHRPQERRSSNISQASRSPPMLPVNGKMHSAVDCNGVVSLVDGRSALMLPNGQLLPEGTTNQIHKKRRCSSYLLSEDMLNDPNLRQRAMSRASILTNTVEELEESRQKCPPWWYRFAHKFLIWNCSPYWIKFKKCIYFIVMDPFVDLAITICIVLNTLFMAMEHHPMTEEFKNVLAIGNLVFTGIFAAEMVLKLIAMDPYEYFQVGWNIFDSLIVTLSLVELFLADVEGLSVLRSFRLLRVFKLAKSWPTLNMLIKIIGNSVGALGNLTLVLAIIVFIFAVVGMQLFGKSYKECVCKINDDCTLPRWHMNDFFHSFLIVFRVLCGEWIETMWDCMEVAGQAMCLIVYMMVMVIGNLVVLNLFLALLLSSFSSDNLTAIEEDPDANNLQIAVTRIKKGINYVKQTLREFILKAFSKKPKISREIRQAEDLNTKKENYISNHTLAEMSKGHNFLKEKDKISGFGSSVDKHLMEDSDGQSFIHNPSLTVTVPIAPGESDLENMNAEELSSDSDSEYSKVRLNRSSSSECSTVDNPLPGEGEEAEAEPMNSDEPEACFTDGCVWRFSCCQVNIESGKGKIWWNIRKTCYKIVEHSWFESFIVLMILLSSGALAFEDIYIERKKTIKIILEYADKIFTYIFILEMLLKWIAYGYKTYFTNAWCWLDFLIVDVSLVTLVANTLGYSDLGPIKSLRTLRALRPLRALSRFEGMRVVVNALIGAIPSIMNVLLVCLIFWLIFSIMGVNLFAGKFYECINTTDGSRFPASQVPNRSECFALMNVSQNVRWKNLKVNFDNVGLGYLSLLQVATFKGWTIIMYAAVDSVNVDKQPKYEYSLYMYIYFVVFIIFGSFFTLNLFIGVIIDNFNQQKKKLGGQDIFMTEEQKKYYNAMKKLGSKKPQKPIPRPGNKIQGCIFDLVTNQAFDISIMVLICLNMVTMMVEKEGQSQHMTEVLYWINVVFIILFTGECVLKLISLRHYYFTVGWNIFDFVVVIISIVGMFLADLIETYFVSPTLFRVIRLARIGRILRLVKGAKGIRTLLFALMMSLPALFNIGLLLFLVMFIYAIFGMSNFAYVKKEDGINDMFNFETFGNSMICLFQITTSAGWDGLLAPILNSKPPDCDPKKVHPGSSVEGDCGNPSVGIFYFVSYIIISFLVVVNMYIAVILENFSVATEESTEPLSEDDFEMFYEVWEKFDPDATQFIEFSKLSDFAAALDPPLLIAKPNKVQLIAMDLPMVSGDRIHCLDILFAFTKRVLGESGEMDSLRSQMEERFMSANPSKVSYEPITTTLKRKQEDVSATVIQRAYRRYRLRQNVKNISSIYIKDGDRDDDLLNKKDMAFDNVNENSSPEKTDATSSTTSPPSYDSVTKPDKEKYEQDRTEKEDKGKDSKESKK

One test has as its target human Nav1.7 (Homo sapiens (Human), UniProt Q15858). Description: FLIPR or FLIPR TETRA sodium dye assay with KCl and test article pre-incubation. Type of test: cell-based. Conditions: read-out: Nav1.7 IC50 (μM) ± SEM.
Take `CS(=O)(=O)c1ccc(Oc2ccc(-c3cccc(CNCCN4CCNC4=O)n3)cc2)cc1` [compound 71, 1-(2-(((6-(4-(4-(methylsulfonyl)phenoxy)phenyl)pyridin-2-yl)methyl)amino)ethyl) imidazolidin-2-one]: the half-inhibitory concentration (IC50) (in general, the midpoint of a concentration-inhibition curve) was determined as 0.35 ± 0.05 µM.
Regarding `Cc1cc(C(=O)NCCN2CCCCC2)cc(-c2ccc(Oc3ccc(F)cc3)cc2)n1` [compound 107, 2-(4-(4-fluorophenoxy)phenyl)-6-methyl-N-(2-(piperidin-1-yl)ethyl) isonicotinamide], the half-inhibitory concentration (IC50) amounted to 0.4 ± 0.12 µM.
For the compound `N#Cc1cc(NCCCn2ccnc2)cc(-c2ccc(Oc3ccc(F)cc3)cc2)n1` [compound 110, 4-((3-(1H-imidazol)-1-yl)propyl)amino)-6-(4-(4-fluorophenoxy) phenylpicolinonitrile], the 50% inhibitory concentration (IC50) amounted to 0.62 ± 0.08 µM.
On to `OC[C@H](O)c1cc(NCCN2CCOCC2)cc(-c2ccc(Oc3ccc(F)cc3)cc2)n1` [compound 111], for which the IC50 was found to be 0.71 ± 0.13 µM.
For the compound `CN(c1ccccc1)c1cc(C(=O)O)nc(-c2ccc(Oc3ccc(F)cc3)cc2)c1` [compound 114, 6-(4-(4-fluorophenoxy)phenyl)-4-(methyl(phenyl)amino)picolinic acid], the IC50 was 0.68 ± 0.6 µM.

The same test, now with this note: recombinant human Nav1.7 in HEK293 cells; CoroNa Green sodium dye; veratridine + scorpion venom; read-out: Nav1.7 IC50 (μM) ± SEM.
In the case of `NC(=O)CN(CCN1CCNC1=O)Cc1cccc(-c2ccc(Oc3ccc(F)cc3)cc2)n1` [compound 72, 2-(((6-(4-(4-fluorophenoxy)phenyl)pyridin-2-yl)methyl)(2-(2-oxoimidazolidin-1-yl)ethyl)amino) acetamide], the IC50 worked out at 0.76 ± 0.03 µM.
On to `CC(C)NC(=O)N1CCN(c2cc(C(N)=O)nc(-c3ccc(Oc4ccc(F)cc4)cc3)c2)CC1` [compound 73, 4-(2-carbamoyl-6-(4-(4-fluorophenoxy)phenyl)pyridin-4-yl)-N-isopropylpiperazine-1-carboxamide], for which the 50% inhibitory concentration (IC50) turned out to be 0.09 ± 0.03 µM.
For `NC(=O)c1cc(N2CCN(c3ncccn3)CC2)cc(-c2ccc(Oc3ccc(F)cc3)cc2)n1` [compound 74, 6-(4-(4-fluorophenoxy)phenyl)-4-(4-(pyrimidin-2-yl)piperazin-1-yl) picolinamide], the IC50 was 0.09 ± 0.01 µM.
Turning to `NC(=O)c1cc(N2CCN(C(N)=O)CC2)cc(-c2ccc(Oc3ccc(F)cc3)cc2)n1` [compound 76, 4-(2-carbamoyl-6-(4-(4-fluorophenoxy)phenyl)pyridin-4-yl) piperazine-1-carboxamide], the IC50 amounted to 0.53 ± 0.07 µM.
Consider `NC(=O)c1cc(N2CCN(C3=NCCCN3)CC2)cc(-c2ccc(Oc3ccc(F)cc3)cc2)n1` [compound 77, 6-(4-(4-fluorophenoxy)phenyl)-4-(4-(1,4,5,6-tetrahydropyrimidin-2-yl)piperazin-1-yl)picolinamide], for which the IC50 is 4.27 ± 0.69 µM.
The same measure, in the same setting: next, `O=C(c1cc(N2CCNCC2)cc(-c2ccc(Oc3ccc(F)cc3)cc2)n1)N1CCNCC1` [compound 78, (6-(4-(4-fluorophenoxy)phenyl)-4-(piperazin-1-yl)pyridin-2-yl) (piperazin-1-yl) methanone]: 10 to 20 µM; `O=C(NCCN1CCCCC1)c1cc(CO)cc(-c2ccc(Oc3ccc(F)cc3)cc2)n1` [compound 79, 6-(4-(4-fluorophenoxy)phenyl)-4-(hydroxymethyl)-N-(2-(piperidin-1-yl)ethyl)picolinamide]: 0.41 ± 0.03 µM.
`N=C(N)N1CCN(c2cc(C(N)=O)nc(-c3ccc(Oc4ccc(F)cc4)cc3)c2)CC1` [compound 80, 4-(4-carbamimidoylpiperazin-1-yl)-6-(4-(4-fluorophenoxy)phenyl)picolinamide]: the IC50 came out at 1.3 ± 0.17 µM.
On the same count and under the same terms, next, `NC(=O)c1cc(C(=O)NCCN2CCCCC2)nc(-c2ccc(Oc3ccc(F)cc3)cc2)c1` [compound 81, 6-(4-(4-fluorophenoxy)phenyl)-N2-(2-(piperidin-1-yl)ethyl)pyridine-2,4-dicarboxamide]: 1.46 ± 0.43 µM.
Take `CC(C)NC(=O)N1CCN(c2cc(C#N)nc(-c3ccc(Oc4ccc(F)cc4)cc3)c2)CC1` [compound 82, 4-(2-cyano-6-(4-(4-fluorophenoxy)phenyl)pyridin-4-yl)-N-isopropylpiperazine-1-carboxamide]: the IC50 stood at 1.94 ± 0.21 µM.
Turning to `N#Cc1cc(N2CCN(C(=N)N)CC2)cc(-c2ccc(Oc3ccc(F)cc3)cc2)n1` [compound 83, 4-(2-cyano-6-(4-(4-fluorophenoxy)phenyl)pyridin-4-yl) piperazine-1-carboximidamide], the concentration for half-maximal inhibition (IC50) amounted to 1.95 ± 0.52 µM.
For the compound `NC(=O)c1cc(NC(=O)Nc2ccccc2)cc(-c2ccc(Oc3ccc(F)cc3)cc2)n1` [compound 84, 6-(4-(4-fluorophenoxy)phenyl)-4-(3-phenylureido) picolinamide], the IC50 is 4.11 ± 0.93 µM.
As to `O=C(O)c1cc(C(=O)NCCN2CCCCC2)nc(-c2ccc(Oc3ccc(F)cc3)cc2)c1` [compound 85, 2-(4-(4-fluorophenoxy)phenyl)-6-((2-(piperidin-1-yl)ethyl)carbamoyl)iso nicotinic acid], the half-maximal inhibitory concentration (IC50) stood at 6.59 ± 2.17 µM.
Turning to `O=C(NCCN1CCCCC1)c1cc(-c2nnn[nH]2)cc(-c2ccc(Oc3ccc(F)cc3)cc2)n1` [compound 86, 6-(4-(4-fluorophenoxy)phenyl)-N-(2-(piperidin-1-yl)ethyl)-4-(1H-tetrazol-5-yl) picolinamide], the IC50 came out at 9.21 ± 1.15 µM.
Turning to `NC(=O)c1cc(NC(=O)NCC(=O)O)cc(-c2ccc(Oc3ccc(F)cc3)cc2)n1` [compound 87, 2-(3-(2-carbamoyl-6-(4-(4-fluorophenoxy)phenyl)pyridin-4-yl)ureido)acetic acid], the 50% inhibitory concentration (IC50) is above 20 µM.
For the compound `C[C@H](NCc1cccc(-c2ccc(Oc3ccc(F)cc3)cc2)n1)C(N)=O` [compound 88, (S)-2-({6-[4-(4-Fluoro-phenoxyl)-phenyl]-pyridin-2-yl-methyl}-amino) propionamide], the IC50 was 0.23 ± 0.09 µM.
Take `NC(=O)c1cc(-c2ccc(Oc3ccc(F)cc3)cc2)nc([C@@H](O)CO)c1` [compound 89, (R)-2-(1,2-dihydroxyethyl)-6-(4-(4-fluorophenoxy)phenyl) isonicotinamide]: the 50% inhibitory concentration (IC50) turned out to be 7.13 ± 0.5 µM.
With `CN(c1ccc(C(=O)O)cc1)c1cc(C(N)=O)nc(-c2ccc(Oc3ccc(F)cc3)cc2)c1` [compound 91, 4-((2-carbamoyl-6-(4-(4-fluorophenoxy)phenyl)pyridin-4-yl)(methyl)amino)benzoic acid], the IC50 was above 20 µM.
On to `O=C(O)CN(c1ccccc1)c1cc(C(=O)O)nc(-c2ccc(Oc3ccc(F)cc3)cc2)c1` [compound 92, 4-((carboxymethyl) (phenyl)amino)-6-(4-(4-fluorophenoxy)phenyl)picolinic acid], for which the half-inhibitory concentration (IC50) amounted to 3.83 ± 0.64 µM.
For `O=C(O)c1cc(-n2cc(C(=O)O)c3ccccc32)cc(-c2ccc(Oc3ccc(F)cc3)cc2)n1` [compound 93, 1-(2-carboxy-6-(4-(4-fluorophenoxy)phenyl)pyridin-4-yl)-1H-indole-3-carboxylic acid], the IC50 is above 20 µM.
Same read-out and setting: next, `N#CCCN(c1ccccc1)c1cc(-c2ccc(Oc3ccc(F)cc3)cc2)cc(C(=O)O)n1` [compound 94, 6-((2-cyanoethyl) (phenyl)amino)-4-(4-(4-fluorophenoxy)phenyl)picolinic acid]: 2.17 ± 0.66 µM.
On to `NC(=O)c1cc(-c2ccc(Oc3ccc(F)cc3)cc2)cc([C@H](O)CO)n1` [compound 95, (S)-6-(1,2-dihydroxyethyl)-4-(4-(4-fluorophenoxy)phenyl)picolinamide], for which the IC50 stood at 0.17 ± 0.08 µM.
On the same count and under the same terms, next, `NC(=O)c1cc(-c2ccc(Oc3ccc(F)cc3)cc2)cc([C@@H](O)CO)n1` [compound 96, (R)-6-(1,2-dihydroxyethyl)-4-(4-(4-fluorophenoxy)phenyl)picolinamide]: 0.12 ± 0.03 µM; `NC(=O)CN(c1ccccc1)c1cc(-c2ccc(Oc3ccc(F)cc3)cc2)cc(C(N)=O)n1` [compound 98, 6-((2-amino-2-oxoethyl)(phenyl)amino)-4-(4-(4-fluorophenoxy)phenyl)picolinamide]: 0.22 ± 0.07 µM; `N#Cc1cccc2c1ccn2-c1cc(C(N)=O)nc(-c2ccc(Oc3ccc(F)cc3)cc2)c1` [compound 99, 4-(4-cyano-1H-indol-1-yl)-6-(4-(4-fluorophenoxy)phenyl) picolinamide]: 0.1 ± 0.03 µM.
Still for that read-out and setting: next, `N#Cc1cccc2c1ccn2-c1cc(-c2ccc(Oc3ccc(F)cc3)cc2)cc(C(N)=O)n1` [compound 100, 6-(4-cyano-1H-indol-1-yl)-4-(4-(4-fluorophenoxy)phenyl) picolinamide]: 0.27 ± 0.03 µM; `N#Cc1cccc2c1ccn2-c1cc(C(=O)O)nc(-c2ccc(Oc3ccc(F)cc3)cc2)c1` [compound 101, 4-(4-cyano-1H-indol-1-yl)-6-(4-(4-fluorophenoxy)phenyl) picolinic acid]: 0.27 ± 0.08 µM.
Take `NC(=O)c1cc(CN2CCN(CC(=O)O)CC2)cc(-c2ccc(Oc3ccc(F)cc3)cc2)n1` [compound 104, 2-(4-((2-carbamoyl-6-(4-(4-fluorophenoxy)phenyl)pyridine-4-yl)methyl)piperazin-1-yl) acetic acid]: the IC50 was found to be 2.7 ± 0.26 µM.
On the same count and under the same terms, next, `O=C1NCCN1CCNCc1ccnc(-c2ccc(Oc3ccc(F)cc3)cc2)c1` [compound 105, 1-(2-(((2-(4-(4-fluorophenoxy)phenyl)pyridin-4-yl)methyl)amino)ethyl) imidazolidin-2-one]: 0.53 ± 0.08 µM; `N#Cc1cc(CNCCN2CCNC2=O)cc(-c2ccc(Oc3ccc(F)cc3)cc2)n1` [compound 106, 6-(4-(4-fluorophenoxy)phenyl)-4-(((2-(2-oxoimidazolidin-1-yl)ethyl)amino)methyl) picolinonitrile]: 2.01 ± 0.44 µM.
Turning to `NC(=O)CN1CCN(c2cc(Cl)nc(-c3ccc(Oc4ccc(F)cc4)cc3)c2)CC1` [compound 109, 2-(4-(2-chloro-6-(4-(4-fluorophenoxy)phenyl)pyridine-4-yl)piperazin-1-yl) acetamide], the half-inhibitory concentration (IC50) stood at 3.77 ± 0.56 µM.
On the same count and under the same terms, the result for `N#Cc1cc([C@H](O)CO)cc(-c2ccc(Oc3ccc(F)cc3)cc2)n1` [compound 112, (S)-4-(1,2-dihydroxyethyl)-6-(4-(4-fluorophenoxy)phenyl)picolinonitrile] reads 2.12 ± 0.54 µM.
Take `CN(c1ccccc1)c1cc(-c2ccc(Oc3ccc(F)cc3)cc2)cc(C(N)=O)n1` [compound 113, 4-(4-(4-fluorophenoxy)phenyl)-6-(methyl(phenyl)amino)picolinamide]: the IC50 was 0.36 ± 0.8 µM.
